According to patent EP0938474B1, “CYCLOPROPYLINDOLE COMPOUNDS AND THEIR USE AS PRODRUGS” (AUCKLAND UNISERVICES LIMITED, priority 1996, dated 1998):

Columns and labels:
Test in all cases: Cytotoxicity (growth inhibition), 4 h drug exposure, methylene blue staining
SKOV3 = assay type: cell-based; conditions: SK-OV-3; human ovarian cell line; 4 hours exposure, then three days incubation
Method: (§1) Compounds of the invention were tested for cytotoxicity against four different cell lines, all of which are widely available in the art. AA8 is a wild type rodent cell line. UV4 is a mutant AA8 cell line defective in excision repair, and hypersensitive to many alkylating agents. EMT6 is a widely-used rodent line. SKOV is a human ovarian cell line.
(§2) Cell culture assays were performed in 96-well microtitre trays. Compounds of the invention were added in culture medium, using serial two-fold dilutions to provide duplicate cultures at five different concentrations for each of eight drugs (plus eight controls) per tray. Drugs were dissolved in water or DMSO immediately prior to addition to the cell culture. After 4 hours, drugs were removed by washing cultures three times with fresh medium, and the trays were incubated for a futher three days. Cell density was then determined by staining with methylene blue as described previously (Finlay, G. J., et al, Anal. Biochm. 1984, 139, 272-277) and the IC50 was calculated as the drug concentration providing 50% inhibition of growth relative to the controls.

AA8 = assay type: cell-based; conditions: Cricetulus griseus, CHO-AA8; AA8 wild type rodent cell line; 4 hours exposure, then three days incubation
Method: as §1, §2

EMT6 = assay type: cell-based; conditions: Mus musculus; EMT6 rodent line; 4 hours exposure, then three days incubation
Method: as §1, §2

UV4 = assay type: cell-based, rodent; conditions: Cricetulus griseus; UV4 mutant AA8 line defective in excision repair; 4 hours exposure, then three days incubation
Method: as §1, §2

Row | Compound | IC50 (SKOV3) [nM] | IC50 (AA8) [nM] | IC50 (EMT6) [nM] | IC50 (UV4) [nM]
1 | COc1cc2cc(C(=O)N3CC(CCl)c4c3cc(N)c3ccccc43)[nH]c2c(OC)c1OC (centres unmarked) [15a, 5-amino-1-(chloromethyl)-3-[(5,6,7-trimethoxyindol-2-yl)carbonyl]-1,2-dihydro-3H-benz [e] indole] | 1 | 0.45 | 0.27 | 0.28
2 | COc1cc2cc(C(=O)N3C[C@H](CCl)c4c3cc(N)c3ccccc43)[nH]c2c(OC)c1OC [15aR, (R)-5-amino-1-(chloromethyl)-3-[(5,6,7-trimethoxyindol-,2-yl)carbonyl]-1,2-dihydro-3H-benz[e]indole] | 7.8 | 13.6 | 7 | 2.6
3 | COc1cc2cc(C(=O)N3C[C@@H](CCl)c4c3cc(N)c3ccccc43)[nH]c2c(OC)c1OC [15aS, (S)-5-amino-1-(chloromethyl)-3-[(5,6,7-trimethoxyindol-2-yl)carbonyl]-1,2-dihydro-3H-benz[e]indole] | 0.5 | 0.2 | 0.1 | 0.1
4 | Nc1ccc2[nH]c(C(=O)N3CC(CCl)c4c3cc(N)c3ccccc43)cc2c1 (centres unmarked) [15b, 5-amino-3-[(5-aminoindol-2-yl)carbonyl]-1-(chloromethyl)-1,2-dihydro-3H-benz [e] indole] | 3 | 2.4 | 0.8 | 1
5 | CC(=O)Nc1ccc2[nH]c(C(=O)N3CC(CCl)c4c3cc(N)c3ccccc43)cc2c1 (centres unmarked) [15c, 3-[[5-(acetylamino)indol-2-yl]carbonyl]-5-amino-1-(chloromethyl)-1,2-dihydro-3H-benz[e]indole] | 18 | 12.5 | 5.2 | 7.6
6 | COc1ccc2[nH]c(C(=O)N3CC(CCl)c4c3cc(N)c3ccccc43)cc2c1 (centres unmarked) [15d, 5-amino-1-(chloromethyl)-3-[(5-methoxyindol-2-yl)carbonyl]-1,2-dihydro-3H-benz[e] indole] | 1.8 | 1.2 | 0.9 | 0.8
7 | CN(C)CCOc1ccc2[nH]c(C(=O)N3CC(CCl)c4c3cc(N)c3ccccc43)cc2c1 (centres unmarked) [15e, 5-amino-1-(chloromethyl)-3-[[5-[2-(dimethylamino)ethoxy]indol-2-yl]carbonyl]-1,2-dihydro-3H-benz [e] indole] | 6.4 | 3.5 | 0.9 | 1.4
8 | CCCC(=O)Nc1cc(/C=C/C(=O)N2CC(CCl)c3c2cc(N)c2ccccc32)n(C)c1 (centres unmarked) [15i] | 22 | 31 | 5.9 | 16
9 | COc1cccc(/C=C/C(=O)N2CC(CCl)c3c2cc(N)c2ccccc32)c1 (centres unmarked) [15l, 5-amino-1-(chloromethyl)-3-[(E)-3-methoxycinnamoyl]-1,2-dihydro-3H-benz[e]indole] | 0.6 | 0.3 | 0.2 | 0.4
10 | COc1cc2cc(C(=O)N3CC(COS(C)(=O)=O)c4c3cc(N)c3ccccc43)[nH]c2c(OC)c1OC (centres unmarked) [15o, 5-amino-1-[(methanesulfonyloxy)methyl]-3-[(5,6,7-trimethoxyindol-2-yl)carbonyl]-1,2-dihydro-3H-benz[e]indole] | 1330 | 660 | 233 | –
11 | CNc1cc2c(c3ccccc13)C(CCl)CN2C(=O)c1cc2cc(OC)c(OC)c(OC)c2[nH]1 (centres unmarked) [15p, 1-(chloromethyl)-5-methylamino-3-[(5,6,7-trimethoxyindol-2-yl)carbonyl]-1,2-dihydro-3H-benz[e]indole] | 0.3 | 0.1 | 0.1 | 0.1
12 | COc1cc2cc(C(=O)N3CC(CCl)c4c3cc(N(C)C)c3ccccc43)[nH]c2c(OC)c1OC (centres unmarked) [15q, 1-(chloromethyl)-5-dimethylamino-3-[(5,6,7-trimethoxy-indol-2-yl)carbonyl]-1,2-dihydro-3H-benz [e] indole] | 16 | 5.6 | 3.8 | 3.7
